{"source": "paper PMC5719457", "about": "“Pseudomonas aeruginosa zinc uptake in chelating environment is primarily mediated by the metallophore pseudopaline” (Scientific Reports, 2017)", "key": {"[1]": {"biological_target": "T1, PaCntL (Pseudomonas aeruginosa, UniProt A0A0H2ZHV3)", "T1 construct": "gene cntL; full length, C-terminal His6 tag (pET22b+), E. coli BL21", "T1 sequence (A0A0H2ZHV3 whole entry)": "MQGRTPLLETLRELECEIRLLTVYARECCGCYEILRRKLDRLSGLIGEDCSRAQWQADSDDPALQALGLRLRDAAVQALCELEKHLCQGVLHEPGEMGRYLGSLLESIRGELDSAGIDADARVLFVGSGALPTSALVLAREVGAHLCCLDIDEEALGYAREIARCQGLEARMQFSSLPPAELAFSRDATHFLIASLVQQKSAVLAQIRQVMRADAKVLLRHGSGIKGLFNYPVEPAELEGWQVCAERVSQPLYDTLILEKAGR", "assay": "TLC with […]-SAM; HILIC/ESI-MS", "type": "biochemical", "conditions": "product yNA"}, "[2]": {"biological_target": "T2, PaCntM (Pseudomonas aeruginosa, UniProt A0A0H2ZH12)", "T2 construct": "gene cntM; full length, N-terminal His6 tag (TEV-cleavable, pET-TEV), E. coli BL21", "T2 sequence (A0A0H2ZH12 whole entry)": "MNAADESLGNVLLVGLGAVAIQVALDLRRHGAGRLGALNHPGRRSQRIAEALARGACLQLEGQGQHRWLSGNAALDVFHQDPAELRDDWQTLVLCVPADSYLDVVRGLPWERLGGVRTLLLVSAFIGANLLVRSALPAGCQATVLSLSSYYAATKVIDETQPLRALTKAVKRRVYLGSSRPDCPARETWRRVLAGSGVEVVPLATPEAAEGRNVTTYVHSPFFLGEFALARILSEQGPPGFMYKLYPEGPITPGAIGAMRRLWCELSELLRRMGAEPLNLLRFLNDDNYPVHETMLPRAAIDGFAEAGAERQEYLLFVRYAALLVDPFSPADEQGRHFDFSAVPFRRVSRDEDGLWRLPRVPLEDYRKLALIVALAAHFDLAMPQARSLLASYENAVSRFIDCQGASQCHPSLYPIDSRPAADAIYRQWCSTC", "assay": "fluorescence resonance energy transfer titration (Trp to NAD(P)H)", "type": "binding"}}}
{"smiles": "N[C@@H](Cc1cnc[nH]1)C(=O)O", "note": "[L-histidine]", "values": [{"measurement": "TLC with [14C]-SAM; HILIC/ESI-MS", "setting": "[1]; co-substrate SAM", "value": "Only the incubation with L-histidine led to a novel band"}]}
{"smiles": "NC(=O)C1=CN([C@@H]2O[C@H](COP(=O)(O)OP(=O)(O)OC[C@H]3O[C@@H](n4cnc5c(N)ncnc54)[C@H](O)[C@@H]3O)[C@@H](O)[C@H]2O)C=CC1", "note": "[NADH]", "values": [{"measurement": "Kd", "setting": "[2]", "value": 30, "unit": "µM"}]}
{"smiles": "C[S+](CC[C@H](N)C(=O)O)C[C@H]1O[C@@H](n2cnc3c(N)ncnc32)[C@H](O)[C@@H]1O", "note": "(stereo partly drawn) [SAM]", "values": [{"measurement": "TLC with [14C]-SAM; HILIC/ESI-MS", "setting": "[1]; co-substrate L-histidine, labelled compound (carboxyl-14C) in TLC", "value": "incubation of PaCntL with SAM and L-histidine led to the formation of the yNA"}]}
